The subject of test [1] is rats streptozotocin (STZ)-induced diabetic peripheral neuropathy model. Description: Evaluation of analgesic effect (von Frey test) in streptozotocin-induced diabetic peripheral neuropathy model. Type of test: in vivo, rat. As to conditions: male Wistar rats, 3 mg/kg of body weight, orally, one hour before measuring. As to the method: Test (2) Evaluation of Analgesic Effect in Streptozotocin-Induced Diabetic Peripheral Neuropathy Models
Using some typical compounds among the compounds of the present invention, the inhibitory effect for neuropathic pain was determined through the evaluation of analgesic effect in rats streptozotocin (STZ)-induced diabetic peripheral neuropathy model.
The disease animal model was prepared by means of a partially-modified method of Fox et al. (Pain 81, 307-316, 1999). STZ was intraperitoneally administered to 9-week old male Wistar rats in 45 mg/kg of body weight to prepare animal model suffering from diabetic peripheral neuropathy. The analgesic effect was evaluated by von Frey test. Specifically, mechanical sensitivity was measured by applying hairs (von Frey hair) to the plantar surface of the animal's hind paw, and then the reaction thresholds (50% paw withdrawal thresholds) for the mechanical stimulation was determined by using a formula based on Chaplan et al. (Journal of Neuroscience Methods 53, 55-63, 1994).
One and two days before evaluating the test compounds, the reaction thresholds were measured to obtain an average thereof, and the average value was used as a reference value obtained before the test compounds would be administered.
In order to reduce the variations of the averaged values among the test groups and the measured values in each group, the animals were divided into 4 to 5 groups.
In the evaluation test of the test compounds, the reaction thresholds were measured after administering each test compound. One hour before measuring the reaction thresholds, each test compound was administered in 3 mg/kg of body weight. The strength of analgesic effect of each test compound is expressed as the extension width (g) of reaction thresholds which is obtained by the calculation formula of (reaction threshold obtained after administering test compound)−(reaction threshold obtained before administering test compound).

The target in another test is human SCN9A (Nav 1.7) (Homo sapiens, UniProt Q15858). The test can be described thus: Measurement of Na ion current (Nav 1.7) by automated patch clamp assay in cells stably-expressing human SCN9A. Type of test: cell-based. As to conditions: compound concentration 10 μmol/L; holding potential inactivating 50% Nav 1.7 channel (around −60 mV); read-out: Inhibitory rate (%) of Na ion current. In outline: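 Tetracycline-inducible cells stably expressing human SCN9A were recorded by automated patch clamp at room temperature. Inhibition rate derived from peak Na current evoked by depolarizing pulse, compared with and without test compound.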
human SCN9A (Nav 1.7), sequence (Q15858 whole entry): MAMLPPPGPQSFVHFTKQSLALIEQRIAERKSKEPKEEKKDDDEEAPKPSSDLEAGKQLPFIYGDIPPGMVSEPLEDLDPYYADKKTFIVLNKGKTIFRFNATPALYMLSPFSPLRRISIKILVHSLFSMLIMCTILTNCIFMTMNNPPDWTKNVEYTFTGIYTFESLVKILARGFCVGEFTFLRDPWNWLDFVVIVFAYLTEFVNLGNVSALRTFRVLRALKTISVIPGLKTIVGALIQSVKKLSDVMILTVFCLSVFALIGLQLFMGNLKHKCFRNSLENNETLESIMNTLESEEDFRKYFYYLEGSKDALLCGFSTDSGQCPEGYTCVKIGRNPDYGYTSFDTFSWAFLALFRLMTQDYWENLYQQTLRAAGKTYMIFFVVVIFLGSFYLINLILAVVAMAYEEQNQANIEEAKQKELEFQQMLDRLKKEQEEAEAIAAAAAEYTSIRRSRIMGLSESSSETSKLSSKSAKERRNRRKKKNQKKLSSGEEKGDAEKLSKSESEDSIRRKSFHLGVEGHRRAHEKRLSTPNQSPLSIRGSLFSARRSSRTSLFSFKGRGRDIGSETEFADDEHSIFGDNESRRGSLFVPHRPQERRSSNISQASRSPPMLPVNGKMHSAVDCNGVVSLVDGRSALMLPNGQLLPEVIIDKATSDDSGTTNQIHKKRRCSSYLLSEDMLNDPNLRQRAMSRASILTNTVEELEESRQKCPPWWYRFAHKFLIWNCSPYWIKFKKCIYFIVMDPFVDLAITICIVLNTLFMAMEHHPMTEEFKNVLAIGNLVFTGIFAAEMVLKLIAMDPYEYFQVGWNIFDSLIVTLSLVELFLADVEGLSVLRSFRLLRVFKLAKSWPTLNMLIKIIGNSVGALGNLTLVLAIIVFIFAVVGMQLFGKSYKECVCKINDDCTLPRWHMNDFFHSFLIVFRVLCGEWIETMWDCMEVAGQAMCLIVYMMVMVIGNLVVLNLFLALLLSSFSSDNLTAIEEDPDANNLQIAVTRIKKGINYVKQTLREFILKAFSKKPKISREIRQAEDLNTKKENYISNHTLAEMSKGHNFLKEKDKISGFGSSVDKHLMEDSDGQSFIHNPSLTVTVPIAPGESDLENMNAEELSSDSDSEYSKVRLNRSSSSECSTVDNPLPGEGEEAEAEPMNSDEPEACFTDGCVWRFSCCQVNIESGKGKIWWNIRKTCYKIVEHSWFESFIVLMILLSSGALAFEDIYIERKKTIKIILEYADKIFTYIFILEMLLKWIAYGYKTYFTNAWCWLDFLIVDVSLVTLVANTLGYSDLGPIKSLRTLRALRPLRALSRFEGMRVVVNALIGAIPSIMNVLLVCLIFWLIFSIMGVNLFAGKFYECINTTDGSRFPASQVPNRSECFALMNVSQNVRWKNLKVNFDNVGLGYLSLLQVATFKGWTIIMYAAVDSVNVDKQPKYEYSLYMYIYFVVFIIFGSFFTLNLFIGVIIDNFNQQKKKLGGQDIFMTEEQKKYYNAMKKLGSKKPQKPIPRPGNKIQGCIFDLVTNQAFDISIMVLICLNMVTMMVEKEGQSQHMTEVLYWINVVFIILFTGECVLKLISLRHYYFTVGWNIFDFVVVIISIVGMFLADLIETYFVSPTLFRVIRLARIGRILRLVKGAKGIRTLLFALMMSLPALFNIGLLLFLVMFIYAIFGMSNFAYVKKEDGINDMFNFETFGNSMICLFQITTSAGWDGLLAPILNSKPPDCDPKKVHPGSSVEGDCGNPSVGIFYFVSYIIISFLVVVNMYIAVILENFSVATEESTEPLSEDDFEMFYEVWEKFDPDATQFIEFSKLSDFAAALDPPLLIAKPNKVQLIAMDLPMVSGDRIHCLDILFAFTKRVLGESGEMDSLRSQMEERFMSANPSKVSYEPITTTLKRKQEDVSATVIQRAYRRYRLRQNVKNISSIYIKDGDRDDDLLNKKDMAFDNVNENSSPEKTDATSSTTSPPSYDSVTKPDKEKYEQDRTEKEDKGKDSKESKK

`CC(C)(O)Cn1cnc2cc(-c3ccc(OC(F)(F)F)cc3)ccc21` [Example 179, 2-methyl-1-{5-[4-(trifluoromethoxy)phenyl]-1H-benzimidazol-1-yl}propan-2-ol]: the “extension width (g) of reaction thresholds (50% paw withdrawal threshold after minus before administering test compound)” value in test [1] worked out at 6.5 g. Besides, the inhibition at 10 µM on human SCN9A (Nav 1.7) came out at 61%.
For `CC(C)(O)Cn1cnc2cc(-c3ccc(C(F)(F)F)cc3F)ccc21` [Example 181, 1-{5-[2-fluoro-4-(trifluoromethyl)phenyl]-1H-benzimidazol-1-yl}-2-methylpropan-2-ol], the “extension width (g) of reaction thresholds (50% paw withdrawal threshold after minus before administering test compound)” value in test [1] came to 2.5 g. On human SCN9A (Nav 1.7), the inhibition at 10 µM came to 45%.
In the same order, the values of `COc1cc(C(F)(F)F)ccc1-c1ccc2c(c1)ncn2CC1(O)COC1` [Example 205, 3-({5-[2-methoxy-4-(trifluoromethyl)phenyl]-1H-benzimidazol-1-yl}methyl)oxetan-3-ol] are 1.6 g and 46%.
In the same order, the values of `C[C@H](n1cnc2ccc(Oc3ccc(C(F)(F)F)cn3)cc21)C(C)(C)O` [Example 229, (3S)-2-methyl-3-(6-{[5-(trifluoromethyl)pyridin-2-yl]oxy}-1H-benzimidazol-1-yl)butan-2-ol] are 3.9 g and 32%.

The record behind these values is patent publication US10407395B2, “Benzimidazole compound and medical use thereof” (Sumitomo Dainippon Pharma Co., Ltd., priority 2015, dated 2019).
